Data on seven molecules can be found in patent US20110059916A1, “Methods and Compositions for Inducing Torpor in a Subject” (priority 2006, published 2011).

One data set relates to AMPK. The settings on record: rat muscle, via AMPK; cited from earlier work.
For another data set, the system named is mClps. The experiment in a line: mClps (procolipase) expression after injection into light-dark mice, Northern blot / RT-PCR. It is filed as in vivo, mouse. The settings on record: for mClps expression in the liver: injected into light-dark mice, Northern blot. The text has this: Northern blot and RT-PCR analysis: Tissues were collected and frozen in liquid nitrogen and stored at about -80 C. The total RNA was isolated from mouse livers following standard procedures.^31 Twenty micrograms of total RNA was separated by electrophoresis and transferred onto a nylon membrane. The blots were hybridized with ^32P-labeled cDNA probes, washed and exposed to X-ray film as previously described.^30 Colipase probe was the complete cDNA (e.g., Genbank No: BC042935); the Gapdh probe was the Pst I fragment of rat Gapdh cDNA.^32 The primer pair used to measure colipase expression was SEQ ID NO:1 [NT] and SEQ ID NO:2 [NT], The primer pair used to measure Gapdh expression as an internal control was SEQ ID NO:3 [NT] and SEQ ID NO:4 [NT] 720 by probe for mouse pancreatic lipase related protein 2 (mPlrp2) was generated by RT-PCR using oligos LipaseF SEQ ID NO:5 [NT] and […] NO:6 [NT] from liver mRNA.

The nature of data set [1]: Serum glucose and liver procolipase expression during SA and arousal. In kind it is in vivo, mouse. The procedure: Experimental Procedures. Each mouse was injected intraperitoneally (IP) with the appropriate dosages of 5'-AMP (Sigma catalog# […]) dissolved in phosphate buffered saline. They were immediately put into individual 500 ml pre-cooled beakers placed in a chamber at 4° C. […] CBT of the mice was monitored by a digital thermometer (Fisher Scientific, USA, catalog 15-077-8) via a micro stainless steel probe (1 mm) placed 1 cm into the rectal opening of the mouse. Temperature readings were taken at 15-20 sec after insertion of the probe. Once the CBT dropped to 15±1.0° C., mice were then transferred to a regular mouse cage with bedding and kept in an environment chamber at a temperature set at 14±0.5° C. or 15±0.5° C. […] CBT. Mice in SA were visually monitored for arousal. Once arousal was apparent, the animals were returned to standard housing. After 12 h of SA, mice were returned to 20-22° C. AET housing with food and water given ad labitum. For 4 consecutive days after SA, food intakes were determined by weight differential of fresh chow every 24 h at ZT2. Body weight was measured at every ZT2. Respiration rate was determined by placing a mouse inside an open-end 50 ml tube and the number of breaths were determined by counting the number of intakes and exhales over 10 sec intervals. These studies were carried out under institutionally approved animal protocol HSC-AWC 04-022. Analysis of serum glucose sample from mice at 2-3 h into SA was about 60% higher than control animals with CBT of 37° C. However, the serum blood glucose level drops to 40% below control animals at spontaneous arousal. […] A decline in blood glucose level can be reversed by increasing gluconeogenesis and reduced glucose need of major organs through β-oxidation of fatty acids. […] Liver RNA obtained from mice in normal state, SA, arousal by rewarming and spontaneous arousal was analyzed for procolipase expression by Northern blot analysis. […]

Data set [2] in a line: Blood glucose after 5′-AMP injection. In kind it is in vivo, mouse. The settings on record: injections.
Data set [3] is classed as in vivo, mouse. The procedure: They were immediately put into individual 500 ml pre-cooled beakers placed in a chamber at 4° C. […] CBT of the mice was monitored by a digital thermometer (Fisher Scientific, USA, catalog 15-077-8) via a micro stainless steel probe (1 mm) placed 1 cm into the rectal opening of the mouse. Temperature readings were taken at 15-20 sec after insertion of the probe. Once the CBT dropped to 15±1.0° C., mice were then transferred to a regular mouse cage with bedding and kept in an environment chamber at a temperature set at 14±0.5° C. or 15±0.5° C. Mice in SA were visually monitored for arousal. Once arousal was apparent, the animals were returned to standard housing. After 12 h of SA, mice were returned to 20-22° C. AET housing with food and water given ad libitum. For 4 consecutive days after SA, food intakes were determined by weight differential of fresh chow and water after every 24 h at ZT2. Body weight was measured at every ZT2. Respiration rate was determined by placing a mouse inside an open-end 50 ml tube and the number of breaths were determined by counting the number of intakes and exhales over 10 sec intervals.
AET for about 60 min. Markedly different behavioral responses to 4° C. AET were observed. […] In contrast, mice injected with 5′-AMP maintained a relaxed posture and no apparent shivering. […] As CBT dropped below 31° C., the mice retained a considerable cognitive response to tactile stimuli indicating a state of torpor (T). However, when CBT dropped to 18-22° C., the mice lost much of their locomotor mobility but had the ability to reverse flip (RF) to right themselves when they were placed on their backs or sides. When CBT dropped below 17° C., this RF ability was lost and the animals entered a state of SA. When laid on their sides or backs, the mice appeared in a suspended animation state with out-stretched limbs and low respiration rates.
These observations raised questions concerning the relative contribution of 5′-AMP, AET and the CBT in mediating SA. To address these issues, the relationship between 5′-AMP and SA was investigated. […] AET for about 60 min.
AET to await spontaneous arousal.
To identify the driver of SA, the relationship between CBT of mice and the AET was investigated. Once in SA, mice were maintained either at 14±0.5° C. or 15±0.5° C. AET. […] Next, the arousal responses of mice kept at 14±0.5° C. or 15±0.5° C. AET were compared. The majority of mice maintained at 15±0.5° C. AET could spontaneously aroused from SA (FIG. 35b). […] When these mice were subsequently placed at a higher AET, they aroused spontaneously and could enter the S stage. A period of SA longer than 14 h was associated with a decline in the ability of the animal to enter the S stage after arousal by warming. […] The underlying cause(s) of death remains unclear.
Together, the foregoing studies indicate that CBT is a major driver of SA in direct response to a low AET. To obtain additional support for this conclusion, the effects of AET on the recovery rate from SA was investigated. Groups of mice (n=4) in SA with a CBT of about 15° C. were transferred into environments with increasing AET's. The time required for each animal's CBT to return to 37° C. was measured (FIG. 35c). A direct correlation between the increase in AET and the recovery rate from SA was seen. To determine whether there were any long-term negative effects from SA, food intake and body weight were measured for several days as an indirect assessment of health status. Mice (n=4) that exited SA spontaneously were used for these studies.

Data set [4] in a line: Heart rate at high concentrations. It is filed as in vivo.
A short description of data set [5]: HPLC analysis of adenylates in blood, liver and muscle during SA. The settings on record: mice in SA given a second injection, red blood cells, 2 hours later.
Protocol: HPLC analysis for adenine nucleotides: Blood was rapidly removed from mice and frozen in liquid Nitrogen. Nucleotides were extracted from frozen samples using about 0.4 N perchloric acid as previously described.^35 Briefly, about 425 μl of ice-cold about 0.4 N perchloric acid was added to frozen blood samples and mixed. After about 10 μl was removed for protein determination, the remainder was centrifuged at about 14,000×g for about 10 minutes at about 4° C. The supernatant (e.g., 305 μl) was transferred to a clean tube, neutralized with about 178 μl of about 0.6 M KHCO3/about 0.72 M KOH and acidified with about 55 μl of about 0.18 M ammonium phosphate solution (pH 5.1) and one drop of dilute phosphoric acid. The samples were centrifuged and the supernatants were stored at about −80° C. for analysis. Blood extracts and adenine nucleotides ATP, ADP, AMP, c-AMP and adenosine (e.g., from Sigma, MO, USA) were separated and quantified using reversed-phase HPLC (e.g., Waters, Millipore Corp., Bedford, Mass.) analysis on a Partisphere bonded phase reverse phase C18 cartridge column at a flow rate of 1.5 ml/minutes.^36 The mobile phase was 0.02 M NH4H2PO4, pH 5.1, with a superimposed methanol gradient: about 0% for about 0-4 minutes, about 0-8% for about 4-6 minutes, about 8-20% for about 6-8 minutes, and about 20% for about 8-18 minutes.
Data set [6] in a line: Daily injection of 5′-AMP into morbid obese Ob/Ob mice: body weight and food intake. The settings on record: Ob/Ob mouse, daily injection 5 then 2.5 umol/gbw, compared with saline. It is filed as in vivo. The text has this: This was then decrease to 2.5 umol/gbw for the rest of the studies.
For data set [7] the following is noted: cited from earlier work.
The mark [8] stands for this setting: IP, above 0.25 mg/gbw, chamber at 4° C.
The mark [9] stands for this setting: mouse, 4° C. environment for the cooling phase.

Consider `NC(=O)c1ncn([C@@H]2O[C@H](CO)[C@@H](O)[C@H]2O)c1N` [AICAR, 5-aminoimidazole-4-carboxamide ribonucleoside], for which, in the data set with AMPK, the fatty acid oxidation result was “increase fatty acid oxidation”.

With `CCNC(=O)[C@H]1O[C@@H](n2cnc3c(N)ncnc32)[C@H](O)[C@@H]1O` [NECA], the “mClps expression in the liver” value in the data set on mClps is “did not induce colipase expression”.

In the case of `Nc1ncnc2c1ncn2[C@@H]1O[C@H](COP(=O)(O)OP(=O)(O)O)[C@@H](O)[C@H]1O` [ADP, adenosine 5′-diphosphate], the “mClps expression in the liver” value in the data set with mClps is “did not induce mClps expression”.

Turning to `Nc1ncnc2c1ncn2[C@@H]1O[C@@H]2COP(=O)(O)O[C@H]2[C@H]1O` [c-AMP], in the data set with mClps, the “mClps expression in the liver” value is “did not induce mClps expression”.

As for `Nc1ncnc2c1ncn2[C@@H]1O[C@H](COP(=O)(O)OP(=O)(O)OP(=O)(O)O)[C@@H](O)[C@H]1O` [ATP], in the data set with mClps, the “mClps expression in the liver” value is reported as “did not induce mClps expression”.

On to `Nc1ncnc2c1ncn2[C@@H]1O[C@H](COP(=O)(O)O)[C@@H](O)[C@H]1O` [5′-AMP, 5′-adenosine monophosphate], for which the “serum glucose higher than control animals” value in data set [1] (2-3 h into SA, control CBT 37° C.) was “about 60%”. For the same molecule, the “serum blood glucose below control animals” value in [1] (at spontaneous arousal) was 40%. Besides, the “procolipase expression in liver” value in data set [1] (mice that had aroused spontaneously, Northern blot) is recorded as “robust level of procolipase expression”. For the same molecule, the blood glucose levels result in data set [2] is given as “reduce the blood glucose levels”. Besides, the “length of SA as a function of 5′-AMP dose” value in data set [3] (0.25 to 1.5 mg/gbw, maintained at 15±0.5° C. AET until spontaneous arousal) was “considerable overlap in the arousal time”. Further, in data set [3] (IP, 4° C. AET for about 60 min, CBT reduction to at least 15° C.), the “effective dosage (ED50) that induced at least 50% of the mice to enter SA” value amounted to 0.125 mg/gbw. Also, in data set [3] (setting [8]), the CBT reached amounted to 15±1.0 °C and the thermo-regulatory responses entry is given as “blocked all thermo-regulatory responses”. Moreover, the “time for CBT drop” value in data set [3] (IP, above 0.25 mg/gbw, chamber at 4° C., CBT to 15±1.0° C.) worked out at 60 ± 10 min. In data set [3] (mice in SA), the “CBT above ambient environmental temperature (AET) during SA” value is 1-2 °C. Further, in data set [3] (mouse), the “dose that can induce deep torpor” value is reported as 5-7.5 mg/g body weight. Also, in [3] (setting [9]), the “ED50 for inducing torpor” value was “approximately 0.15 mg/gram body weight” and the “ED100 for inducing torpor” value is given as “approximately 0.25 mg/g body weight”. In addition, in data set [3] (mouse, in vivo), the “body weight after SA” value is recorded as “no significant difference in body weight” and the “food intake after SA” value is “moderately lower food intake”. In data set [3] (normal about 120 breaths per min, CBT below 17° C.), the “respiration rate in SA” value was “reduced by at least two-thirds”. The “mClps expression in peripheral tissues” value with mClps (RT-PCR) is recorded as “detected in all peripheral tissues sampled except the brain”. The “mClps expression in the liver” value in the data set on mClps is on record as “induced mClps expression”. Besides, the heart rate entry in [4] is “slows the heart rate”. Further, in [5], the “ATP level after a second injection” value is “steep drop in ATP level”. Further, in data set [6], the body weight entry was “weight loss” and the “satiety / food intake” value is “lower satiety”. The CBT after injection entry (high dose, from about 37° C., during about the first hour, ambient room temperature 24° C.) was “about 27 °C”. For the setting “mouse, in vivo”, the “adverse effects on the torpid mice” value is “No apparent adverse effects”. For the same molecule, the length of torpor entry (various dosages, wild type mice) was “dependent on the dosage”.

On to `Nc1ncnc2c1ncn2[C@@H]1O[C@H](CO)[C@@H](O)[C@H]1O` [adenosine], for which, in data set [7], the water solubility entry was “very low”. In addition, the “mClps expression in the liver” value in the data set on mClps is given as “induced mClps expression”.
